Source: patent US10722495B2, “Cyanoindazole compounds and uses thereof” (Incyte Corporation, priority 2017, dated 2020)

Biological target: HPK1 (Homo sapiens (Human), UniProt Q92918)
Assay: HPK1 Kinase Binding Assay
Conditions: active HPK1 (SignalChem M23-11G), tracer 222, LanthaScreen Eu-Anti GST antibody, one hour incubation at 25° C.
Description: Example A. HPK1 Kinase Binding Assay
A stock solution of 1 mM test compound was prepared in DMSO. The compound plate was prepared by 3-fold and 11-point serial dilutions. 0.1 μL of the compound in DMSO was transferred from the compound plate to the white 384 well polystyrene plates. The assay buffer contained 50 mM HEPES, pH 7.5, 0.01% Tween-20, 5 mM MgCl2, 0.01% BSA, and 5 mM DTT. 5 μl of 4 nM active HPK1 (SignalChem M23-11G) prepared in the buffer was added to the plate. The enzyme concentration given was based on the given stock concentration reported by the vender. 5 μl of 18 nM tracer 222 (ThermoFisher PV6121) and 4 nM LanthaScreen Eu-Anti GST antibody (ThermoFisher PV5595) were added. After one hour incubation at 25° C., the plates were read on a PHERAstar FS plate reader (BMG Labtech). Ki values were determined.

HPK1, sequence (Q92918 1-346): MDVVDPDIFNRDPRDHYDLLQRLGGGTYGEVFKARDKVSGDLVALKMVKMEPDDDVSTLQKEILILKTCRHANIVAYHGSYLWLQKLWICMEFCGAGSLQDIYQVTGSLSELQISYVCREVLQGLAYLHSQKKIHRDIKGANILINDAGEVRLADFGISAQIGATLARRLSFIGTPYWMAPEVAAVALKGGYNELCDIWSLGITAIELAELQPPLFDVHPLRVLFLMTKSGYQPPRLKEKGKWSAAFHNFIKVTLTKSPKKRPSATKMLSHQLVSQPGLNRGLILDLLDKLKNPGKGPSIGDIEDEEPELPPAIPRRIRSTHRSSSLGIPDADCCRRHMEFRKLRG

Ki, ≤ 100 nM:
CNCc1cc(C)c(-c2cc3c(-c4ccc(C5CCOCC5)nc4)n[nH]c3cc2C#N)c(F)c1 [Example 32, 5-(2-Fluoro-6-methyl-4-((methylamino)methyl)phenyl)-3-(6-(tetrahydro-2H-pyran-4-yl)pyridin-3-yl)-1H-indazole-6-carbonitrile]
CNCc1cc(C)c(-c2cc3c(-c4ccc(C(C)(C)O)nc4)n[nH]c3cc2C#N)c(F)c1 [Example 33, 5-(2-Fluoro-6-methyl-4-((methylamino)methyl)phenyl)-3-(6-(2-hydroxypropan-2-yl)pyridin-3-yl)-1H-indazole-6-carbonitrile]
CNCc1cc(C)c(-c2cc3c(-c4ccc(C)nc4)n[nH]c3cc2C#N)c(F)c1 [Example 34, 5-(2-Fluoro-6-methyl-4-((methylamino)methyl)phenyl)-3-(6-methylpyridin-3-yl)-1H-indazole-6-carbonitrile]
CNCc1cc(C)c(-c2cc3c(-c4cnc(OC)nc4)n[nH]c3cc2C#N)c(F)c1 [Example 35, 5-(2-Fluoro-6-methyl-4-((methylamino)methyl)phenyl)-3-(2-methoxypyrimidin-5-yl)-1H-indazole-6-carbonitrile]
CNCc1cc(C)c(-c2cc3c(-c4cnco4)n[nH]c3cc2C#N)c(F)c1 [Example 36, 5-(2-Fluoro-6-methyl-4-((methylamino)methyl)phenyl)-3-(oxazol-5-yl)-1H-indazole-6-carbonitrile]
CNCc1cc(C)c(-c2cc3c(-c4cnsc4)n[nH]c3cc2C#N)c(F)c1 [Example 37, 5-(2-Fluoro-6-methyl-4-((methylamino)methyl)phenyl)-3-(isothiazol-4-yl)-1H-indazole-6-carbonitrile]
CNCc1cc(C)c(-c2cc3c(-c4cnoc4)n[nH]c3cc2C#N)c(F)c1 [Example 38, 5-(2-Fluoro-6-methyl-4-((methylamino)methyl)phenyl)-3-(isoxazol-4-yl)-1H-indazole-6-carbonitrile]
CNCc1cc(C)c(-c2cc3c(-c4ccc(C5CCOCC5)cc4)n[nH]c3cc2C#N)c(F)c1 [Example 39, 5-(2-Fluoro-6-methyl-4-((methylamino)methyl)phenyl)-3-(4-(tetrahydro-2H-pyran-4-yl)phenyl)-1H-indazole-6-carbonitrile]
CNCc1cc(C)c(-c2cc3c(-c4cnc(C)o4)n[nH]c3cc2C#N)c(F)c1 [Example 40, 5-(2-Fluoro-6-methyl-4-((methylamino)methyl)phenyl)-3-(2-methyloxazol-5-yl)-1H-indazole-6-carbonitrile]
CNCc1cc(C)c(-c2cc3c(-c4ccc(N5CC[C@H](F)C5)nc4)n[nH]c3cc2C#N)c(F)c1 [Example 41, 5-(2-Fluoro-6-methyl-4-((methylamino)methyl)phenyl)-3-(6-((S)-3-fluoropyrrolidin-1-yl)pyridin-3-yl)-1H-indazole-6-carbonitrile]
CNCc1cc(C)c(-c2cc3c(-c4ccc(N5CCC(O)CC5)nc4)n[nH]c3cc2C#N)c(F)c1 [Example 42, 5-(2-Fluoro-6-methyl-4-((methylamino)methyl)phenyl)-3-(6-(4-hydroxypiperidin-1-yl)pyridin-3-yl)-1H-indazole-6-carbonitrile]
CC[C@@H](C)Nc1ccc(-c2n[nH]c3cc(C#N)c(-c4c(C)cc(CNC)cc4F)cc23)cn1 [Example 43, 3-(6-(((R)-sec-Butyl)amino)pyridin-3-yl)-5-(2-fluoro-6-methyl-4-((methylamino)methyl)phenyl)-1H-indazole-6-carbonitrile]
CNCc1cc(C)c(-c2cc3c(-c4ccc(N5CC(CO)C5)nc4)n[nH]c3cc2C#N)c(F)c1 [Example 44, 5-(2-Fluoro-6-methyl-4-((methylamino)methyl)phenyl)-3-(6-(3-(hydroxymethyl)azetidin-1-yl)pyridin-3-yl)-1H-indazole-6-carbonitrile]
CNCc1cc(C)c(-c2cc3c(-c4cccc(N5CCC(O)CC5)n4)n[nH]c3cc2C#N)c(F)c1 [Example 45, 5-(2-Fluoro-6-methyl-4-((methylamino)methyl)phenyl)-3-(6-(4-hydroxypiperidin-1-yl)pyridin-2-yl)-1H-indazole-6-carbonitrile]
CNCc1cc(C)c(-c2cc3c(-c4cccc(N5CCN(C)CC5)n4)n[nH]c3cc2C#N)c(F)c1 [Example 46, 5-(2-Fluoro-6-methyl-4-((methylamino)methyl)phenyl)-3-(6-(4-methylpiperazin-1-yl)pyridin-2-yl)-1H-indazole-6-carbonitrile]
CNCc1cc(C)c(-c2cc3c(-c4cccc(N5CC[C@H](N(C)C)C5)n4)n[nH]c3cc2C#N)c(F)c1 [Example 47, 3-(6-((S)-3-(Dimethylamino)pyrrolidin-1-yl)pyridin-2-yl)-5-(2-fluoro-6-methyl-4-((methylamino)methyl)phenyl)-1H-indazole-6-carbonitrile]
Cc1ccccc1-c1cc2c(-c3cnn(C)c3)n[nH]c2cc1C#N [Example 48, 3-(1-Methyl-1H-pyrazol-4-yl)-5-o-tolyl-1H-indazole-6-carbonitrile]
Cn1cc(-c2n[nH]c3cc(C#N)c(-c4ccccc4F)cc23)cn1 [Example 49, 5-(2-Fluorophenyl)-3-(1-methyl-1H-pyrazol-4-yl)-1H-indazole-6-carbonitrile]
COc1cccc(F)c1-c1cc2c(-c3cnn(C)c3)n[nH]c2cc1C#N [Example 50, 5-(2-Fluoro-6-methoxyphenyl)-3-(1-methyl-1H-pyrazol-4-yl)-1H-indazole-6-carbonitrile]
Cc1cccc(F)c1-c1cc2c(-c3cnn(C)c3)n[nH]c2cc1C#N [Example 51, 5-(2-Fluoro-6-methylphenyl)-3-(1-methyl-1H-pyrazol-4-yl)-1H-indazole-6-carbonitrile]
